Test results from PubChem BioAssay AID1963848 (Molecular Pharmacology Branch, DTP, NCI, 2024).

Test system: 379773-124-R-J2-PDC spheroid viability
Experiment: Anticancer human tumor 379773-124-R-J2-PDC patient-derived endometrial carcinoma cell line growth inhibition [POLQ]
Settings: spheroids with HUVEC and MSC; for IC50: curve of first compound; for viability, T/C: stronger effect = lower value
In short: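 Complex spheroid viability model combining PDC tumour cells with endothelial (HUVEC) and MSC stromal cells. Novobiocin, ART-558 or RP6685 were tested singly and in combination with standard and investigational anticancer drugs. Each was titrated in half-log steps from near clinical Cmax, or from 10 microM where Cmax was unknown.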

[1] = second compound 0.0316 µM, first compound 0.00316 µM
[2] = second compound 0.0316 µM, first compound 0.01 µM
[3] = second compound 0.0316 µM, first compound 0.0316 µM
[4] = second compound 0.0316 µM, first compound 0.1 µM
[5] = second compound 0.0316 µM, first compound 0.316 µM
[6] = second compound 0.0316 µM, first compound 1 µM
[7] = second compound 0.1 µM, first compound 0.00316 µM
[8] = second compound 0.1 µM, first compound 0.01 µM
[9] = second compound 0.1 µM, first compound 0.0316 µM
[10] = second compound 0.1 µM, first compound 0.1 µM
[11] = second compound 0.1 µM, first compound 0.316 µM
[12] = second compound 0.1 µM, first compound 1 µM
[13] = second compound 0.316 µM, first compound 0.00316 µM
[14] = second compound 0.316 µM, first compound 0.01 µM
[15] = second compound 0.316 µM, first compound 0.0316 µM
[16] = second compound 0.316 µM, first compound 0.1 µM
[17] = second compound 0.316 µM, first compound 0.316 µM
[18] = second compound 0.316 µM, first compound 1 µM
[19] = second compound 1 µM, first compound 0.00316 µM
[20] = second compound 1 µM, first compound 0.01 µM
[21] = second compound 1 µM, first compound 0.0316 µM
[22] = second compound 1 µM, first compound 0.1 µM
[23] = second compound 1 µM, first compound 0.316 µM
[24] = second compound 1 µM, first compound 1 µM
[25] = second compound 3.16 µM, first compound 0.00316 µM
[26] = second compound 3.16 µM, first compound 0.01 µM
[27] = second compound 3.16 µM, first compound 0.0316 µM
[28] = second compound 3.16 µM, first compound 0.1 µM
[29] = second compound 3.16 µM, first compound 0.316 µM
[30] = second compound 3.16 µM, first compound 1 µM
[31] = second compound 10 µM, first compound 0.00316 µM
[32] = second compound 10 µM, first compound 0.01 µM
[33] = second compound 10 µM, first compound 0.0316 µM
[34] = second compound 10 µM, first compound 0.1 µM
[35] = second compound 10 µM, first compound 0.316 µM
[36] = second compound 10 µM, first compound 1 µM
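Note: spheroids exposed to drugs for seven days before readout.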
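Throughout, for viability, T/C: percent viability relative to DMSO vehicle control taken as 100%.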

CCc1c2c(nc3ccc(O)cc13)-c1cc3c(c(=O)n1C2)COC(=O)[C@]3(O)CC + COC1C(OC(N)=O)C(O)C(Oc2ccc3c(O)c(NC(=O)c4ccc(O)c(CC=C(C)C)c4)c(=O)oc3c2C)OC1(C)C
IC50 (second compound 0.0316 µM): < 3.16 nM
IC50 (second compound 0.1 µM): < 3.16 nM
IC50 (second compound 0.316 µM): < 3.16 nM
IC50 (second compound 1 µM): < 3.16 nM
IC50 (second compound 3.16 µM): < 3.16 nM
IC50 (second compound 10 µM): < 3.16 nM
viability, T/C [1]: 42.4%
viability, T/C [2]: 8.01%
viability, T/C [3]: 6.39%
viability, T/C [4]: 2.16%
viability, T/C [5]: 1.05%
viability, T/C [6]: 0.62%
viability, T/C [7]: 49.5%
viability, T/C [8]: 11.7%
viability, T/C [9]: 5.4%
viability, T/C [10]: 1.94%
viability, T/C [11]: 0.57%
viability, T/C [12]: 1.04%
viability, T/C [13]: 45.1%
viability, T/C [14]: 8.27%
viability, T/C [15]: 5.04%
viability, T/C [16]: 2.09%
viability, T/C [17]: 2.43%
viability, T/C [18]: 0.41%
viability, T/C [19]: 40%
viability, T/C [20]: 9.16%
viability, T/C [21]: 5.09%
viability, T/C [22]: 1.92%
viability, T/C [23]: 0.94%
viability, T/C [24]: 0.31%
viability, T/C [25]: 41.8%
viability, T/C [26]: 9.15%
viability, T/C [27]: 5.39%
viability, T/C [28]: 2.03%
viability, T/C [29]: 0.93%
viability, T/C [30]: 0.3%
viability, T/C [31]: 41.5%
viability, T/C [32]: 7.13%
viability, T/C [33]: 6.51%
viability, T/C [34]: 1.69%
viability, T/C [35]: 1.78%
viability, T/C [36]: 0.49%

C=CC(=O)N1CCN(c2nc(=O)n(-c3c(C)ccnc3C(C)C)c3nc(-c4c(O)cccc4F)c(F)cc23)C(C)C1 (stereo unspecified) + Nc1ccc(C#CCN(C(=O)Cc2ncc(C(F)(F)F)cc2C(F)(F)F)c2ccc(F)cc2)nn1
IC50 (second compound 0.0316 µM): > 10000 nM
IC50 (second compound 0.1 µM): > 10000 nM
IC50 (second compound 0.316 µM): > 10000 nM
IC50 (second compound 1 µM): > 10000 nM
IC50 (second compound 3.16 µM): > 10000 nM
IC50 (second compound 10 µM): > 10000 nM
viability, T/C [3]: 102%
viability, T/C [4]: 91.5%
viability, T/C [5]: 103%
viability, T/C [6]: 94.7%
viability, T/C (second compound 0.0316 µM, first compound 3.16 µM): 114%
viability, T/C (second compound 0.0316 µM, first compound 10 µM): 96.1%
viability, T/C [9]: 90%
viability, T/C [10]: 89.1%
viability, T/C [11]: 104%
viability, T/C [12]: 98.7%
viability, T/C (second compound 0.1 µM, first compound 3.16 µM): 92%
viability, T/C (second compound 0.1 µM, first compound 10 µM): 91.7%
viability, T/C [15]: 95.4%
viability, T/C [16]: 93.5%
viability, T/C [17]: 90.2%
viability, T/C [18]: 86.4%
viability, T/C (second compound 0.316 µM, first compound 3.16 µM): 94.1%
viability, T/C (second compound 0.316 µM, first compound 10 µM): 100%
viability, T/C [21]: 89.2%
viability, T/C [22]: 85.5%
viability, T/C [23]: 99.6%
viability, T/C [24]: 93%
viability, T/C (second compound 1 µM, first compound 3.16 µM): 98.8%
viability, T/C (second compound 1 µM, first compound 10 µM): 103%
viability, T/C [27]: 91.9%
viability, T/C [28]: 90.9%
viability, T/C [29]: 101%
viability, T/C [30]: 90.3%
viability, T/C (second compound 3.16 µM, first compound 3.16 µM): 95%
viability, T/C (second compound 3.16 µM, first compound 10 µM): 93.3%
viability, T/C [33]: 88.3%
viability, T/C [34]: 91.4%
viability, T/C [35]: 93.3%
viability, T/C [36]: 91.4%
viability, T/C (second compound 10 µM, first compound 3.16 µM): 94.9%
viability, T/C (second compound 10 µM, first compound 10 µM): 98.2%

COc1cccc(OCCCN)c1-c1cc(Nc2cnc(C#N)cn2)n[nH]1 + Cc1cccc(N(C)C(=O)C2C(O)CCN2c2nc(C)cc(C(F)(F)F)c2C#N)c1
IC50 (second compound 0.0316 µM): 6.72 nM
IC50 (second compound 0.1 µM): 6.43 nM
IC50 (second compound 0.316 µM): 6.04 nM
IC50 (second compound 1 µM): 6.31 nM
IC50 (second compound 3.16 µM): 6.03 nM
IC50 (second compound 10 µM): 6.19 nM
viability, T/C [1]: 87.1%
viability, T/C [2]: 30.5%
viability, T/C [3]: 2.41%
viability, T/C [4]: 2.05%
viability, T/C [5]: 1.74%
viability, T/C [6]: 1.59%
viability, T/C [7]: 92.8%
viability, T/C [8]: 23.4%
viability, T/C [9]: 3.34%
viability, T/C [10]: 3.31%
viability, T/C [11]: 2.36%
viability, T/C [12]: 1.82%
viability, T/C [13]: 85.5%
viability, T/C [14]: 22.3%
viability, T/C [15]: 3.19%
viability, T/C [16]: 1.9%
viability, T/C [17]: 1.95%
viability, T/C [18]: 2.25%
viability, T/C [19]: 93.4%
viability, T/C [20]: 21.1%
viability, T/C [21]: 3.23%
viability, T/C [22]: 2.53%
viability, T/C [23]: 2.26%
viability, T/C [24]: 3%
viability, T/C [25]: 84.3%
viability, T/C [26]: 23.2%
viability, T/C [27]: 3.07%
viability, T/C [28]: 2.7%
viability, T/C [29]: 2.36%
viability, T/C [30]: 0.99%
viability, T/C [31]: 88.8%
viability, T/C [32]: 22.1%
viability, T/C [33]: 4.5%
viability, T/C [34]: 4.11%
viability, T/C [35]: 2.59%
viability, T/C [36]: 2.26%
